row,Structure (SMILES),melting point
1,Cc1cc(C)c2c(-c3ccccc3)nn(-c3ccccc3)c2n1,114 °C
2,O=[N+]([O-])c1ccccc1-c1ccccc1[N+](=O)[O-],126 °C
3,O=C(O)C1C(c2ccccc2)C(C(=O)O)C1c1ccccc1 (stereo unspecified),228 °C
4,O=C(O)CCC(=O)c1ccc2c(c1)OCCCO2,149 to 151 °C
5,Oc1ccnc(Cl)c1,171 °C
6,ClCc1nc(-c2ccc(Cl)cc2)no1,60 to 61 °C
7,CCCC(C)(N)P(=O)(O)O (stereo unspecified),258 to 262 °C
8,O=C(CNc1ccccc1)Nc1ccc(Br)cc1,154 °C
9,CC(=O)Oc1cc(C)c(OC(C)=O)c2ccccc12,113 °C
10,S=c1oc(-c2cc3ccccc3o2)nn1CCl,300 °C
11,O=C=Nc1ccc(Oc2ccc(N=C=O)cc2)cc1,62 to 66 °C
12,Cc1cc(C(F)(F)F)n2nc(N)c(/N=N/c3cccc4ccccc34)c2n1,236 °C
13,COC(=O)c1sccc1OC,62 °C
14,COc1ccc(C2Sc3ccccc3NC(=O)C2O)cc1 (stereo unspecified),203 to 207 °C
15,Nc1nccnc1C(=O)O,201 to 205 °C
16,COC(=O)CC1C(=O)NC(C)=C1C(=O)OC (stereo unspecified),93 to 94 °C
17,CC(C)(C)OC(=O)N1CCN(Cc2ccc(CO)cc2)CC1,52 to 53 °C
18,C#CCN1CCS(=O)(=O)CC1,114 to 116 °C
19,COC(=O)c1ccc(CS(=O)(=O)Cl)cc1,116 to 117 °C
20,Nc1ncnc2c1ncn2C1OC(CI)C(O)C1O (stereo unspecified),178 to 187 °C
21,Cc1cnc(N)c(C)n1,96 °C
22,CC1(C)C(=O)OC2=C(CCCC2=Cc2ccccc2)C1c1ccccc1 (stereo unspecified),155 to 157 °C

row,Structure (SMILES),melting point
1,NC1=C(Cl)C(=O)c2ccccc2C1=O,201 °C
2,CC(C)(CCl)C(=O)O,41.5 °C
3,COc1ccc(-c2cc(=O)c3c(O)cc(O)cc3o2)cc1O,254 °C
4,COc1ccc([N+](=O)[O-])c2ccccc12,81 to 85 °C
5,NNC(=O)c1csc(CS(=O)(=O)c2ccc(Cl)cc2)n1,206 to 207 °C
6,COc1cc(/C=N/N=C/c2ccc(OCc3ccccc3)c(OC)c2)ccc1OCc1ccccc1,216 °C
7,C=CCNc1nc(N)c(C(N)=O)s1,158 to 160 °C
8,Nc1ccccc1-c1cnco1,54 to 56 °C
9,COc1ccc2c(c1C)CC2C#N (stereo unspecified),80 °C
10,CC(=C(CCOC(=O)c1ccccc1)SSC(CCOC(=O)c1ccccc1)=C(C)N(C=O)Cc1cnc(C)nc1N)N(C=O)Cc1cnc(C)nc1N,146 °C
11,CC(C)COC=O,-95.8 °C
12,O=C(O)c1ccc(C(=O)O)c2c(C(=O)O)ccc(C(=O)O)c12,320 °C
13,Cc1cc(=O)oc2[nH]nc(C)c12,251 to 252 °C
14,COc1cccc(C=C(C(=O)O)C(=Cc2cccc(OC)c2)C(=O)O)c1,182 °C
15,CCN1C(=O)CSC1=S,38 °C
16,CCCCCCCC/C=C\CCCCCCCC#N,-1 °C
17,Nc1ncc(Cl)cc1I,97 °C
18,CC(=O)C1(C)CCC2C3CCC4=CC(=O)CCC4=C3CCC21C (stereo unspecified),106 °C
19,c1cc2c3c(c4ccc5ccccc5c4cc3c1)CC2,174 °C
20,Cc1cc(S(=O)(=O)c2ccccc2)ccc1NS(=O)(=O)C(F)(F)F,143 °C
21,CCOC,-113 °C
22,CC(=O)OC1(C(C)=O)CCC2C3CC(C)C4=CC(=O)CCC4(C)C3CCC21C (stereo unspecified),206 °C

row,Structure (SMILES),melting point
1,O=C1C=C(NCc2ccccn2)C(=O)c2ccccc21,149 °C
2,O=C1NCCCN1,265 °C
3,Nc1ccc(Cl)nc1,83 °C
4,CN(N)C(=O)c1ccccc1N,69 to 71 °C
5,O=C1C2=C(C(=O)c3ccccc31)C1(CC1)C21CC1,103 °C
6,COC(=O)c1ccc([N+](=O)[O-])cc1Cl,77 to 78 °C
7,COc1ccc2cc(C(=O)c3ccccc3)c(=O)oc2c1,150 to 153 °C
8,NC(=O)CC(N)C(=O)O (stereo unspecified),234 °C
9,CCOCCC(OCC)OCC,53 °C
10,CC(C)(C)OC(=O)NN1CCCC1C(=O)O (stereo unspecified),134 to 137 °C
11,NC(=O)Nc1ccc(Br)cc1,226 °C
12,O=[N+]([O-])c1ccc(Oc2ccccc2)cc1,58 °C
13,Cc1cccc(C(O)c2ccccc2)c1 (stereo unspecified),53 °C
14,Nc1ccc2c(c1)C(=O)c1ccccc1C2=O,304 °C
15,Nc1cc(O)nc(N)n1,285 to 286 °C
16,C=CCN1CCC23c4c5ccc(O)c4OC2C(O)C=CC3C1C5 (stereo unspecified),208 °C
17,NS(=O)(=O)c1ccc(SCCCCO)cc1,101 °C
18,O=Cc1ccc2cccnc2n1,138 to 143 °C
19,Nc1ncccc1I,90 °C
20,CC(CCC(=O)O)C1CCC2C3C(O)CC4CC5(CCC4(C)C3CC(=O)C12C)OCCO5 (stereo unspecified),219 °C
21,COc1cc2c(cc1OC)C(c1ccccc1)N(C(C)=O)CC2 (stereo unspecified),195 to 197 °C
22,Cn1c(=O)c(C2=NNC(=O)C2=Cc2ccccn2)c(O)c2ccccc21,292 °C

row,Structure (SMILES),melting point
1,CCCCOCCOC(C)=O,-63 °C
2,C#CC1(O)CCC2C3CCC4CCCCC4(C)C3CCC21C (stereo unspecified),155 °C
3,C#CC(O)CCCCC (stereo unspecified),-60 °C
4,N#CCSc1nc(=O)[nH]c2c1CCCC2,223 to 225 °C
5,Cc1cn(C2CCC(CO)O2)c(=O)[nH]c1=O (stereo unspecified),156 °C
6,N#Cc1ccc(F)cn1,43 °C
7,CCC1(CC)C(=O)NC(=O)N(C)C1=O,155 °C
8,CCOc1ccc(Br)cc1,4 °C
9,NC(=O)c1ccc(CC(=O)c2ccc(Cl)cc2)cc1,221 to 223 °C
10,N#Cc1c(-c2cccs2)cc(-c2ccco2)[nH]c1=O,318 to 320 °C
11,CC(=O)Nc1ccc([N+](=O)[O-])c(C(F)(F)F)c1,108 to 109 °C
12,NNC(=O)c1ccc2c(c1)OCO2,174 °C
13,O=Cc1ccc(OCc2ccccc2)c(OCc2ccccc2)c1,88 to 92 °C
14,O=C(NC(=O)c1c(F)cccc1F)Nc1ccc(Oc2ccc(C(F)(F)F)cc2Cl)cc1F,167 °C
15,OC[C@H]1CC[C@H](CO)CC1,61 to 66 °C
16,O=[N+]([O-])c1ccc(CCBr)cc1,69 °C
17,CC(C)COC(=O)c1ccccc1C(=O)OCC(C)C,-64 °C
18,Cc1cc2ccccc2oc1=O,91 °C
19,CSc1nc(N)nc(-c2cccs2)n1,176 to 177 °C
20,COC(=O)c1ccc[nH]1,73 to 75 °C
21,Cn1c(S(=O)(=O)O)nc2ccccc21,341 °C
22,CC(=O)Oc1ccccc1-c1ccccc1,65 °C

row,Structure (SMILES),melting point
1,CN(C)C(=O)C(c1ccccc1)C(O)c1ccccc1 (stereo unspecified),176 °C
2,CC1(C)OC2C(CO)OC(n3cnc4c(N)ncnc43)C2O1 (stereo unspecified),221 to 222 °C
3,Cc1[nH]c2nc(C(F)(F)F)nn2c(=O)c1Cl,215 °C
4,CCOC(=O)c1[nH]c2cc3[nH]c(C(=O)OCC)c(OC(C)=O)c3cc2c1OC(C)=O,178 °C
5,O=C(O)c1ccncc1C(=O)O,262 °C
6,O[C@@H]1CC2=C(CCCC2)C[C@@H]1O,120 to 121 °C
7,O=Cc1c(F)cc(F)cc1F,66 °C
8,NNC(=O)c1cnn(-c2ccccc2)c1C(F)(F)F,153 to 155 °C
9,CC(C)n1cc(C(N)=S)c(=O)n(Cc2ccccc2)c1=O,173 to 175 °C
10,CN(c1c(F)c(F)c(F)c(F)c1F)[N+](=O)[O-],39.5 °C
11,Cc1c(F)cccc1[N+](=O)[O-],7 °C
12,O=C(c1ccccc1)C1(O)CCCCC1,48 °C
13,Nc1ccncc1C=O,110 °C
14,CC12CCC(C(=O)Cl)(OC1=O)C2(C)C (stereo unspecified),66 °C
15,CC(O)C(O)C(O)C(O)C=O (stereo unspecified),122 °C
16,O=C1N(c2ccccc2)N(c2ccccc2/N=N\c2ccccc2)C1(c1ccccc1)c1ccccc1,163 °C
17,N#Cc1ccc(N2CCNCC2)cc1,82 to 84 °C
18,N#CCc1c[nH]c2ccccc12,36 °C
19,O=C1CCCCCCCC1,34 °C
20,CCC(O)(CC)C1(C)CCC(C(=O)O)C(C)(C)O1 (stereo unspecified),138 °C
21,Cc1cc(C)cc(CC#N)c1,44 °C
22,NS(=O)(=O)c1ccc(Br)s1,139 to 141 °C

row,Structure (SMILES),melting point
1,NC(=O)/C(=C\c1ccc(Cl)cc1Cl)c1nc2ccccc2s1,263 °C
2,Cc1cc(Br)cnc1Cl,40 to 44 °C
3,Clc1ccnc2ccccc12,34.5 °C
4,O=C1CN=C(c2ccccc2)c2cc(Cl)ccc2N1CC1CC1,146 °C
5,O=[N+]([O-])c1ccc(-c2nnc3sc(/C=C/c4ccccc4)nn23)cc1,112 to 114 °C
6,O=c1occcc1O,93.8 °C
7,O=C(Nc1cccc2cc(OC(=O)c3ccccc3)ccc12)c1ccccc1,222 to 223 °C
8,O=C(O)CCN1C(=O)c2ccccc2C1=O,152 °C
9,CC12CCC3C(C(=O)CC4CC(O)(C(Cl)(Cl)Cl)CCC43C)C1CCC2=O (stereo unspecified),248 to 254 °C
10,O=CC(Br)=Cc1ccccc1,70 °C
11,Nc1ccc(N=Nc2ccccc2)cc1,127 °C
12,CC(=O)OCC1OC=CC(OC(C)=O)C1OC(C)=O (stereo unspecified),54 °C
13,COc1ccc(N2C(=O)C3ON=C(C(=O)c4ccco4)C3C2=O)cc1 (stereo unspecified),137 °C
14,O=C(O)C=Cc1ccco1,143 °C
15,N#CCC[Si](Cl)(Cl)Cl,33 to 34 °C
16,CCOP(=S)(OCC)Oc1cnccn1,-1.7 °C
17,CC(=O)O[C@@H]1[C@@H](OC(C)=O)[C@H](C)O[C@@H](OCc2ccccc2)[C@@H]1OC(C)=O,110 to 113 °C
18,NC(=S)c1c[nH]cn1,205 to 207 °C
19,C/C=C/C(=O)OC,-42 °C
20,CCCCCCCCC(=O)OCCCCCCC,-15.5 °C
21,O=C(O)[C@@H]1Cc2ccccc2CN1C(=O)OCC1c2ccccc2-c2ccccc21,146 to 149 °C
